Measured values: US9675625B2, “Medicament comprising recombinant antibody against chemokine receptor CCR4” (KYOWA HAKKO KIRIN CO., LTD., priority 2003, dated 2017)
Where “and” joins values, the source holds several entries; their conditions need not be identical. Equal values may be shown once.

Assays:
CCRF-CEM cells [1] = test: antitumor effect of KM 2760 and cyclophosphamide in combination, CCRF-CEM cells grafted in nude mouse; format: in vivo, Balb/c nude mouse; settings: Day 4; KM 2760 800 μg per mouse Day 0 and Day 4; CPA 65 mg/kg Day 0; tail vein
Protocol: CCRF-CEM cells (human T cell leukemia cell line) were suspended in RPMI 1640 medium (Gibco BRL) at a concentration of 2×10^8 cells/mL, and 100 μL of the suspension was grafted intradermally in the right flank of Balb/c nude mice (Nippon Crea, male). On Day 18 after the cell grafting, a diameter of a tumor was measured with calipers, and a tumor volume was calculated using formula 2 in Example 2.
Individuals having the tumor volume within the range of 116 to 349 mm^3 (on average 219 mm^3) were selected, and grouped such that the average tumor volume to be almost the same. Each of the following agent A to D was administered to the mice. Incidentally, the grouping day was defined as Day 0.
The experiment was conducted with groups each consisting of five mice. Each of the agents was diluted with a physiological saline (Otsuka Seiyaku), and the diluent was administered from the tail vein. On Day 4, the tumor volume was measured. The antitumor effect was evaluated by comparing an average values of a tumor volume change (V/V0) on each measurement day when the tumor volume on Day 0 in each group was defined as V0.

CCRF-CEM cells [2] = test: antitumor effect of KM 2760 and Methotrexate in combination, CCRF-CEM cells grafted in nude mouse; format: in vivo, Balb/c nude mouse; settings: Day 7; KM 2760 800 μg per mouse Day 0 and Day 4; MTX 15 mg/kg Day 0 to Day 4; tail vein
Protocol: CCRF-CEM cells (human T cell leukemia cell line) were suspended in RPMI 1640 medium (Gibco BRL) at a concentration of 2×10^8 cells/mL, and 100 μL of the suspension was grafted into the ventral skin of Balb/c nude mice (CLEA Japan Inc. male). On Day 17 after the cell grafting, a diameter of a tumor was measured with calipers, and a tumor volume was calculated using formula 2 in Example 2.
Individuals having the tumor volume within the range of 121 to 348 mm^3 (on average 195 mm^3) were selected, and grouped such that the average tumor volume to be almost the same. Each of the following agents A to D was administered to the mice. Incidentally, the grouping day was defined as Day 0.
(§1) B. Group of administering KM 2760 alone: 800 μg of KM2760 was administered per mouse on Day 0 and Day 4.
C. Group of administering Methotrexate (hereinafter referred to as MTX; Methotrexate injection solution, Nippon Weisledary K.K.) alone: 15 mg/kg of MTX was administered per mouse for 5 days from Day 0 to Day 4. […]
The experiment was conducted with groups each consisting of five mice. […] On Day 7, the tumor volume was measured. The antitumor effect was evaluated by comparing average values of a tumor volume change (V/V0) when the tumor volume on Day 0 in each group was defined as V0.

CCRF-CEM cells [3] = test: antitumor effect of KM 2760 and vincristine in combination, CCRF-CEM cells grafted in nude mouse; format: in vivo, Balb/c nude mouse; settings: Day 10; KM 2760 800 μg per mouse Day 0 and Day 4; VCR 0.55 mg/kg Day 0; tail vein
CCRF-CEM cells [4] = test: antitumor effect of KM 2760 and etoposide in combination, CCRF-CEM cells grafted in nude mouse; format: in vivo, Balb/c nude mouse; settings: Day 7; KM 2760 800 μg per mouse Day 0 and Day 4; VP-16 10 mg/kg Day 0 to Day 4; tail vein
Protocol: CCRF-CEM cells (human T cell leukemia cell line) were suspended in RPMI 1640 medium (Gibco BRL) at a concentration of 2×10^8 cells/mL, and 100 μL of the suspension was grafted into the ventral skin of Balb/c nude mice (Nippon Crea, male). On Day 17 after the cell grafting, a diameter of a tumor was measured with calipers, and a tumor volume was calculated using formula 2 in Example 2.
Individuals having the tumor volume within the range of from 121 to 348 mm^3 (on average 195 mm^3) were selected, and grouped such that the average tumor volume to be almost the same. Each of the following agents A to D was then administered to the mice. Incidentally, the grouping day was defined as Day 0.
as §1
C. Group of administering etoposide (hereinafter referred to as VP-16; Lastet injection, Nippon Kayaku Co., Ltd.) alone: 10 mg/kg of VP-16 was administered per mouse for 5 days from Day 0 to Day 4. […]
The experiment was conducted with groups each consisting of five mice. […] On Day 7, the tumor volume was measured. The antitumor effect was evaluated by comparing average values of a tumor volume change (V/V0) on Day 7 when the tumor volume on Day 0 in each group was defined as V0.

CCR4/EL4 cells [5] = test: antitumor effect of KM 2760 and IFN-α in combination, CCR4/EL4 cells grafted into tail vein of C57BL/6 mice, liver weight ratio; format: in vivo, C57BL/6 mouse
Protocol: CCR4/EL4 cells were suspended in RPMI 1640 medium (manufactured by Gibco BRL) at a concentration of 5×10^5 cells/mL, and 100 μl of the suspension was grafted into the tail vein of C57BL/6 mice (CLEA Japan Inc., male, 8 weeks old). Further, mice were grouped into A to D, and each of the agents A to D were administered to the mice. Incidentally, the day on which the tumor was grafted was defined as Day 0.
B. Group of administering IFN-α alone: 5×10^4 units of IFN-α (Universal type I interferon, manufactured by PBL Biomedical Laboratories) was intravenously administered per mouse once a day for 5 days from Day 1 to Day 5.
The experiment was conducted with group A consisting of 7 mice and groups B, C and D each consisting of 6 mice. […] The weight of all mice was measured on Day 14. After etherization and exsanguination, mice were brought to euthanasia by dislocation of the cervical spine. The liver was extracted, and the weight of the liver was then measured. A ratio of the liver weight to the weight of each individual (hereinafter referred to as a weight ration of a liver) was calculated by percentage.
The antitumor effect was evaluated by comparing the liver weight ratio (average value of six mice) of untreated healthy mice measured simultaneously and the liver weight ratio of each group increased by metastasis of tumor cells.
Further, the residual amount of tumor cells in the liver in each group was calculated as a T/C value using the following formula. T/C=(average values of a weight ration of a liver of each group−average value of a weight ration of a liver of an untreated mouse)/(average value of a weight ration of a liver of a negative control group−average value of a weight ration of a liver of an untreated mouse) (Formula 4)

CCR4/EL4 cells [6] = tested on: CCR4/EL4 cells
Protocol: CCR4/EL4 cells (WO 01/64754) were suspended in RPMI 1640 medium (manufactured by Gibco BRL) at a concentration of 1×10^5 cells/mL, and 200 μL of the suspension was grafted into the peritoneal cavity of C57BL/6 mice (CLEA Japan Inc., male, 8 weeks old). After, mice was grouped into A to D, and each of the agents A to D was administered to each mouse. The day on which the tumor was grafted was defined as Day 0.
B. Group of administering M-CSF alone: 100 μg of M-CSF (Leucoprol, manufactured by Kyowa Hakko Kogyo Co., Ltd.) was intraperitoneally administered per mouse twice a day from Day-3 to Day-1 and once a day on Day 0, seven times in total.
The experiment was conducted with groups each consisting of 8 mice. […] The antitumor effect was evaluated by a ratio of average values of the number of survival days of mice in each group to an average value of the number of survival days of mice in the negative control group (hereinafter referred to as a life prolongation ratio).

CCR4/EL4 cells [7] = test: antitumor effect of KM 2760 and G-CSF in combination, CCR4/EL4 cells grafted into ventral skin of C57BL/6 mice; format: in vivo, C57BL/6 mouse
Protocol: CCR4/EL4 cells (WO 01/64754) were suspended, in RPMI 1640 medium (Gibco BRL) at a concentration of 1×10^6 cells/mL, and 100 μL of the suspension was grafted into the right ventral skin of C57BL/6 mice (Nippon Crea, male, 8 weeks old). After, mice were grouped into A to D, each of the agents A to D were administered to each mouse. Incidentally, the day on which the tumor was grafted was defined as Day 0.
B. Group of administering KM 2760 alone: 100 μg of KM2760 was intravenously administered per mouse on Day 0 and Day 4.
C. Group of administering G-CSF alone: 10 μg of G-CSF (Neuup Injection 100, manufactured by Kyowa Hakko Kogyo Co., Ltd.) was subcutaneously administered per mouse once a day for 10 days from 4 days before the tumor grafting (hereinafter referred to as Day-4) to Day 5.
The experiment was conducted with group A consisting of 10 mice and groups B, C and D each consisting of 7 mice. […] Each of the diluent was administered at 100 μL. A diameter of a tumor was measured with calipers chronologically from Day 0 of each group. A tumor volume was calculated using formula 2 in Example 2.
Since the tumor death of the mouse was started in group A from Day 17 on, the evaluation of the tumor volume was finished on Day 14.
The antitumor effect (T/C value) in each group was evaluated by calculation using the following formula 3 for comparison between the average value of the tumor volume in group A and the average values of the tumor volume in each group on the final evaluation day (Day 14). (T/C value)=(average value of tumor volume in each group on Day 14)/average value of tumor volume in group A on Day 14) (Formula 3)

[8] = KM 2760 50 μg i.p. Day 0, M-CSF 100 μg i.p. seven times

## O=P1(N(CCCl)CCCl)NCCCO1 (stereo not drawn) [CPA, cyclophosphamide, reference compound]
CCRF-CEM cells [1]
  T/C (V/V0 of group divided by V/V0 of negative control group): 0.48

## CN(Cc1cnc2nc(N)nc(N)c2n1)c1ccc(C(=O)N[C@@H](CCC(=O)O)C(=O)O)cc1 [MTX, Methotrexate, reference compound]
CCRF-CEM cells [2]
  T/C (V/V0 of group divided by V/V0 of negative control group): 0.06

## CC[C@]1(O)C[C@H]2CN(CCc3c([nH]c4ccccc34)[C@@](C(=O)OC)(c3cc4c(cc3OC)N(C=O)[C@H]3[C@@](O)(C(=O)OC)[C@H](OC(C)=O)[C@]5(CC)C=CCN6CC[C@]43[C@@H]65)C2)C1 [VCR, vincristine, reference compound]
CCRF-CEM cells [3]
  T/C (V/V0 of group divided by V/V0 of negative control group): 0.49

## COc1cc([C@@H]2c3cc4c(cc3[C@@H](O[C@@H]3O[C@@H]5CO[C@@H](C)O[C@H]5[C@H](O)[C@H]3O)[C@H]3COC(=O)[C@H]23)OCO4)cc(OC)c1O [VP-16, etoposide, reference compound]
CCRF-CEM cells [4]
  T/C (V/V0 of group divided by V/V0 of negative control group): 0.71

## IFN-α
CCR4/EL4 cells [5]; Day 14, KM 2760 0.5 μg per mouse i.v. Day 1 and Day 5, IFN-α 5×10^4 units per mouse i.v. Day 1 to Day 5
  T/C value (residual amount of tumor cells in the liver, from liver weight ratio): 0.48
CCR4/EL4 cells [5]; FIG. 7, Day 14
  antitumor effect compared to untreated group A (liver weight ratio): low

B1: M-CSF: M-CSF (Leucoprol, manufactured by Kyowa Hakko Kogyo Co., Ltd.) (protein, UniProt P09603 33-554, looked up)
Macrophage colony-stimulating …: EEVSEYCSHMIGSGHLQSLQRLIDSQMETSCQITFEFVDQEQLKDPVCYLKKAFLLVQDIMEDTMRFRDNTPNAIAIVQLQELSLRLKSCFTKDYEEHDKACVRTFYETPLQLLEKVKNVFNETKNLLDKDWNIFSKNCNNSFAECSSQDVVTKPDCNCLYPKAIPSSDPASVSPHQPLAPSMAPVAGLTWEDSEGTEGSSLLPGEQPLHTVDPGSAKQRPPRSTCQSFEPPETPVVKDSTIGGSPQPRPSVGAFNPGMEDILDSAMGTNWVPEEASGEASEIPVPQGTELSPSRPGGGSMQTEPARPSNFLSASSPLPASAKGQQPADVTGTALPRVGPVRPTGQDWNHTPQKTDHPSALLRDPPEPGSPRISSLRPQGLSNPSTLSAQPQLSRSHSSGSVLPLGELEGRRSTRDRRSPAEPEGGPASEGAARPLPRFNSVPLTDTGHERQSEGSFSPQLQESVFHLLVPSVILVLLAVGGLLFYRWRRRSHQEPQRADSPLEQPEGSPLTQDDRQVELPV
CCR4/EL4 cells [6]; 8 mice per group, KM 2760 50 μg per mouse i.p. Day 0, M-CSF 100 μg per mouse i.p. seven times Day-3 to Day 0, observation to Day 50
  Number of survival days (each mouse): 17 days (2×) and 18 days (3×) and 19 days (2×) and 22 days
CCR4/EL4 cells [6]; [8]
  Average number of survival days: 18.8 days
  Life prolongation ratio (average survival days of group / negative control group): 0.974
CCR4/EL4 cells [6]; Table 7
  antitumor effect in comparison with untreated Group A (survival): no antitumor effect

B2: G-CSF: G-CSF (Neuup Injection 100, manufactured by Kyowa Hakko Kogyo Co., Ltd.) (protein, UniProt P09919 31-207, looked up)
Granulocyte …: TPLGPASSLPQSFLLKCLEQVRKIQGDGAALQEKLVSECATYKLCHPEELVLLGHSLGIPWAPLSSCPSQALQLAGCLSQLHSGLFLYQGLLQALEGISPELGPTLDTLQLDVADFATTIWQQMEELGMAPALQPTQGAMPAFASAFQRRAGGVLVASHLQSFLEVSYRVLRHLAQP
modifications: nartograstim
CCR4/EL4 cells [7]; Day 14, KM 2760 100 μg per mouse i.v. Day 0 and Day 4, G-CSF 10 μg per mouse s.c. once a day Day-4 to Day 5
  T/C value (average tumor volume of group / group A): 0.63
CCR4/EL4 cells [7]; FIG. 6, up to Day 14
  antitumor effect compared to untreated group A (tumor volume): low
